Laboratory results: PMC10226046, “Prodrug Strategies for the Development of β-L-5-((E)-2-Bromovinyl)-1-((2S,4S)-2-(hydroxymethyl)-1,3-(dioxolane-4-yl))uracil (L-BHDU) against Varicella Zoster Virus (VZV)” (Journal of Medicinal Chemistry, 2023)
Read-outs that look alike come from different tables or passages of the source.

What was measured:
VZV-ORF57-Luc [1] = conditions: for EC50: cell-free VZV-ORF57-Luc, ARPE-19 cells, 72 hpi, bioluminescence imaging
VZV-ORF57-Luc [2] = experiment: microbe, parasite or virus in culture; conditions: Human alphaherpesvirus 3, ARPE-19, cell-free VZV-ORF57-Luc, ARPE-19 cells, 72 hpi, bioluminescence imaging
[3] = Neutral red dye uptake cytotoxicity assay in ARPE-19 cells; conditions: human
VZV = conditions: cited from earlier work
in vitro = conditions: human
VZV-ORF57-Luc [4] = experiment: microbe, parasite or virus in culture; type: cell-based, Varicella zoster virus
VZV-ORF57-ΔTK = experiment: microbe, parasite or virus in culture; type: cell-based, Varicella zoster virus
VZV-ORF57-ΔTS = experiment: microbe, parasite or virus in culture; type: cell-based, Varicella zoster virus
VZV-ORF57-ΔTKTS = experiment: microbe, parasite or virus in culture; type: cell-based, Varicella zoster virus
ARPE-19 cells = experiment: Neutral red dye uptake cytotoxicity assay in ARPE-19 cells; conditions: 72 h, neutral red assay
[5] = selectivity index = CC50/EC50, ARPE-19 cells
[6] = Human alphaherpesvirus 3, ARPE-19
[7] = cell-associated virus, ARPE-19 cells
[8] = cell-associated VZV-ORF57-Luc, ARPE-19 cells, read-out: EC50
[9] = cell-associated VZV-ORF57-ΔTK, ARPE-19 cells, read-out: EC50
[10] = cell-associated VZV-ORF57-ΔTS, ARPE-19 cells, read-out: EC50
[11] = cell-associated VZV-ORF57-ΔTKTS, ARPE-19 cells, read-out: EC50

## C[C@@H](N)C(=O)OC[C@H]1OC[C@@H](n2cc(/C=C/Br)c(=O)[nH]c2=O)O1.Cl [L-BHDU-L-alanine (15), L-BHDU-5′-O-L-alanyl Ester Hydrochloride]
VZV-ORF57-Luc [1]
  SI (CC50/EC50): >2959
VZV-ORF57-Luc [1]; [5]
  SI (CC50/EC50): >2959
VZV-ORF57-Luc [2]
  EC50: 33.8 nM
[3]
  CC50 at 72 h: > 100000 nM

## CC(C)[C@H](N)C(=O)OCCOCn1cnc2c(=O)[nH]c(N)nc21 [VACV, valacyclovir]
VZV; 120 mg/kg/day, SCID-hu mouse
  effect on VZV spread: no effect
VZV; SCID-hu mice
  effect on VZV replication: did not affect VZV replication

## CC(C)(C)OC(=O)N[C@@H](Cc1ccc(O)cc1)C(=O)O [compound 27]
VZV-ORF57-Luc [1]
  SI (CC50/EC50): >2481

## Cl.N[C@@H](Cc1ccc(O)cc1)C(=O)OC[C@H]1OC[C@@H](n2cc(/C=C/Br)c(=O)[nH]c2=O)O1 [L-BHDU-L-tyrosine (26), L-BHDU-5′-O-L-tyrosine Ester Hydrochloride]
VZV-ORF57-Luc [1]
  SI (CC50/EC50): >826
VZV-ORF57-Luc [1]; [5]
  SI (CC50/EC50): >826
VZV-ORF57-Luc [2]
  EC50: 121 nM
[3]
  CC50 at 72 h: > 100000 nM

## Cl.NCC(=O)OC[C@H]1OC[C@@H](n2cc(/C=C/Br)c(=O)[nH]c2=O)O1 [L-BHDU-glycine (14), L-BHDU-5′-O-glycyl Ester Hydrochloride]
VZV-ORF57-Luc [1]
  SI (CC50/EC50): >2132
VZV-ORF57-Luc [1]; [5]
  SI (CC50/EC50): >2132
VZV-ORF57-Luc [2]
  EC50: 46.9 nM
[3]
  CC50 at 72 h: > 100000 nM

## CC(C)OC(=O)C(Cc1ccccc1)NP(=O)(OC[C@H]1OC[C@@H](n2cc(/C=C/Br)c(=O)[nH]c2=O)O1)Oc1ccccc1 (stereo in doubt) [Isopropyl ((((2S,4S)-4-(5-((E)-2-Bromovinyl)-2,4-dioxo-3,4-dihydropyrimidin-1(2H)-yl)-1,3-dioxolan-2-yl)methoxy)(phenoxy)phosphoryl)-L-phenylalaninate]
VZV-ORF57-Luc [1]
  SI (CC50/EC50): 61
VZV-ORF57-Luc [1]; [5]
  SI (CC50/EC50): 61
In vitro
  CC50 at 72 h: 93700 nM
VZV-ORF57-Luc [2]
  EC50: 1530 nM

## Nc1ccn(C[C@@H](CO)OCP(=O)(O)O)c(=O)n1 [cidofovir (CDV), cidofovir, reference compound]
VZV-ORF57-Luc [4]; [6]
  EC50: 370 nM
VZV-ORF57-ΔTK; [6]
  EC50: 420 nM
VZV-ORF57-ΔTK; [7]
  activity against VZV-ORF57-ΔTK (in words): effective
VZV-ORF57-ΔTS; [6]
  EC50: 10 nM
VZV-ORF57-ΔTKTS; [6]
  EC50: 1050 nM
VZV-ORF57-ΔTKTS; [7]
  activity against VZV-ORF57-ΔTKTS (in words): effective
VZV-ORF57-Luc [1]; [5]
  SI (CC50/EC50): >208
VZV-ORF57-Luc [2]
  EC50: 482 nM
[3]
  CC50 at 72 h: > 100000 nM

## L-BHDU-5′-[(2-hexadecyloxyethyl)phosphate] [HDP-L-BHDU-MP (39)]
VZV-ORF57-Luc [1]
  SI (CC50/EC50): 35
  EC50: 526 nM
VZV-ORF57-Luc [1]; listed as 39
  EC50: 530 nM
VZV-ORF57-Luc [1]; [5]
  SI (CC50/EC50): 35
ARPE-19 cells
  CC50: 18500 nM

## Cl.NC(=O)CC[C@H](N)C(=O)OC[C@H]1OC[C@@H](n2cc(/C=C/Br)c(=O)[nH]c2=O)O1 [L-BHDU-L-glutamine (23), L-BHDU-5′-O-L-glutamine Ester Hydrochloride]
VZV-ORF57-Luc [1]
  SI (CC50/EC50): >794
VZV-ORF57-Luc [1]; [5]
  SI (CC50/EC50): >794
VZV-ORF57-Luc [2]
  EC50: 126 nM
[3]
  CC50 at 72 h: > 100000 nM

## CC(C)OC(=O)C(C)NP(=O)(OC[C@H]1OC[C@@H](n2cc(/C=C/Br)c(=O)[nH]c2=O)O1)Oc1ccccc1 (stereo in doubt) [Isopropyl ((((2S,4S)-4-(5-((E)-2-Bromovinyl)-2,4-dioxo-3,4-dihydropyrimidin-1(2H)-yl)-1,3-dioxolan-2-yl)methoxy)(phenoxy)phosphoryl)-L-alaninate]
VZV-ORF57-Luc [1]
  SI (CC50/EC50): >206
In vitro
  CC50: > 100000 nM
VZV-ORF57-Luc [2]
  EC50: 1690 nM

## Bis(POC) Prodrug of L-BHDU-MP [POC-L-BHDU-MP (47)]
VZV-ORF57-Luc [4]; [8]
  EC50: 40 nM
VZV-ORF57-ΔTK; [9]
  EC50: > 2000 nM
VZV-ORF57-ΔTS; [10]
  EC50: 8.4 nM
VZV-ORF57-ΔTKTS; [11]
  EC50: > 2000 nM
VZV-ORF57-Luc [1]
  SI (CC50/EC50): >2915
  EC50: 34.3 nM
VZV-ORF57-Luc [1]; listed as POC-L-BHDU-MP
  EC50: 34 nM
VZV-ORF57-Luc [1]; [5]
  SI (CC50/EC50): >2915
VZV-ORF57-Luc [1]; selectivity index = CC50/EC50, ARPE-19 cells, listed as POC-L-BHDU-MP
  SI (CC50/EC50): > 2915
ARPE-19 cells
  CC50: > 100000 nM

## Cl.NCCCC[C@H](N)C(=O)OC[C@H]1OC[C@@H](n2cc(/C=C/Br)c(=O)[nH]c2=O)O1 [L-BHDU-L-lysine (25), L-BHDU-5′-O-L-lysine Ester Hydrochloride]
VZV-ORF57-Luc [1]; [5]
  SI (CC50/EC50): >2481
VZV-ORF57-Luc [2]
  EC50: 40.3 nM
[3]
  CC50 at 72 h: > 100000 nM

## L-BHDU-5′-[(2-octadecyloxyethyl)phosphate] [ODE-L-BHDU-MP (38)]
VZV-ORF57-Luc [4]; cell-associated VZV-ORF57-Luc
  fold more potent compared to ACV: 9 fold
VZV-ORF57-Luc [4]; [8]
  EC50: 820 nM
VZV-ORF57-ΔTK; [9]
  EC50: > 2000 nM
VZV-ORF57-ΔTS; [10]
  EC50: 0.8 nM
VZV-ORF57-ΔTKTS; [11]
  EC50: > 2000 nM
VZV-ORF57-Luc [1]
  SI (CC50/EC50): 339
  EC50: 100 nM
VZV-ORF57-Luc [1]; [5]
  SI (CC50/EC50): 339
ARPE-19 cells
  CC50: 33900 nM

## Cl.N[C@@H](Cc1c[nH]c2ccccc12)C(=O)OC[C@H]1OC[C@@H](n2cc(/C=C/Br)c(=O)[nH]c2=O)O1 [L-BHDU-L-tryptophan (19), L-BHDU-5′-O-L-tryptophan Ester Hydrochloride]
VZV-ORF57-Luc [1]
  SI (CC50/EC50): >1550
VZV-ORF57-Luc [1]; [5]
  SI (CC50/EC50): >1550
VZV-ORF57-Luc [2]
  EC50: 64.5 nM
[3]
  CC50 at 72 h: > 100000 nM

## Nc1nc2c(ncn2COCCO)c(=O)[nH]1 [acyclovir (ACV), acyclovir, reference compound]
[3]
  CC50 at 72 h: > 100000 nM

## Cl.N[C@H](Cc1ccccc1)C(=O)OC[C@H]1OC[C@@H](n2cc(/C=C/Br)c(=O)[nH]c2=O)O1 [L-BHDU-L-phenylalanine (16), L-BHDU-5′-O-L-phenylalanyl Ester Hydrochloride]
VZV-ORF57-Luc [1]
  SI (CC50/EC50): >3484
  EC50: 28.7 nM
VZV-ORF57-Luc [1]; [5]
  SI (CC50/EC50): >3484
VZV-ORF57-Luc [1]; selectivity index = CC50/EC50, ARPE-19 cells, listed as 16
  SI (CC50/EC50): > 3484
VZV-ORF57-Luc [2]
  EC50: 28 nM
[3]
  CC50 at 72 h: > 100000 nM

## CC(C)(N)C(=O)OC[C@H]1OC[C@@H](n2cc(/C=C/Br)c(=O)[nH]c2=O)O1.Cl [L-BHDU-2-aminoisobutyric acid (24), L-BHDU-5′-O-2-aminoisobutyric Acid Ester Hydrochloride]
VZV-ORF57-Luc [1]
  SI (CC50/EC50): >2597
VZV-ORF57-Luc [1]; [5]
  SI (CC50/EC50): >2597
VZV-ORF57-Luc [2]
  EC50: 38.5 nM
[3]
  CC50 at 72 h: > 100000 nM

## Cl.O=C(OC[C@H]1OC[C@@H](n2cc(/C=C/Br)c(=O)[nH]c2=O)O1)[C@@H]1CCCN1 [L-BHDU-L-proline (22), L-BHDU-5′-O-L-proline Ester Hydrochloride]
VZV-ORF57-Luc [1]
  SI (CC50/EC50): >1934
VZV-ORF57-Luc [1]; [5]
  SI (CC50/EC50): >1934
VZV-ORF57-Luc [2]
  EC50: 51.7 nM
[3]
  CC50 at 72 h: > 100000 nM

## CC(C)[C@H](N)C(=O)OC[C@H]1OC[C@@H](n2cc(/C=C/Br)c(=O)[nH]c2=O)O1.Cl [L-BHDU-D-valine (18), L-BHDU-5′-O-D-valyl Ester Hydrochloride]
VZV-ORF57-Luc [1]
  SI (CC50/EC50): >709
  EC50: 141 nM
VZV-ORF57-Luc [1]; [5]
  SI (CC50/EC50): >709
VZV-ORF57-Luc [2]
  EC50: 140 nM
[3]
  CC50 at 72 h: > 100000 nM

## CC[C@H](C)[C@H](N)C(=O)OC[C@H]1OC[C@@H](n2cc(/C=C/Br)c(=O)[nH]c2=O)O1.Cl [L-BHDU-L-isoleucine (21), L-BHDU-5′-O-L-isoleucine Ester Hydrochloride]
VZV-ORF57-Luc [1]
  SI (CC50/EC50): >1520
VZV-ORF57-Luc [1]; [5]
  SI (CC50/EC50): >1520
VZV-ORF57-Luc [2]
  EC50: 65.8 nM
[3]
  CC50 at 72 h: > 100000 nM

## CC(C)C[C@H](N)C(=O)OC[C@H]1OC[C@@H](n2cc(/C=C/Br)c(=O)[nH]c2=O)O1.Cl [L-BHDU-L-leucine (20), L-BHDU-5′-O-L-leucine Ester Hydrochloride]
VZV-ORF57-Luc [1]
  SI (CC50/EC50): >2415
VZV-ORF57-Luc [1]; [5]
  SI (CC50/EC50): >2415
VZV-ORF57-Luc [2]
  EC50: 41.4 nM
[3]
  CC50 at 72 h: > 100000 nM
